Laboratory results taken from patent publication US9468208B2, “Disease control with tick phospholipase A2” (The United States of America, as represented by the …, priority 2009, dated 2016).

How the values were obtained:
[1] = test system: B31 B. burgdorferi isolates; assay: B. burgdorferi viability, live/dead BacLight staining counts; format: cell-based, Borrelia burgdorferi; settings: 35° C., BSK-H, starting 155 live spirochetes per field
Method: Evaluation of PLA2 protein regulation of B. burgdorferi viability. Analyses of PLA2 protein is performed essentially as described by Ledin, K. E., et al., Med. Vet. Entomol., 2005; 19(1):90-95, the contents of which are incorporated herein by reference. Frozen stocks of low-passage B31 B. burgdorferi isolates (Shelter Island, N.Y.) are reconstituted in BSK-H culture medium and maintained at 35° C. to log phase (Piesman, 1993). Spirochete cultures are diluted with BSK-H to a density of 4.7×10^7 viable spirochetes per mL as counted in a Petroff-Hauser chamber under dark-field microscopy, and distributed in 15 μL aliquots into 0.7 mL tubes for a total of 7.05×10^5 spirochetes per tube. A mean starting concentration of 155 live spirochetes per field is assessed prior to the addition of specific treatments. Each 15 μL aliquot of spirochetes in BSK-His treated with either 15 μL of sterile PBS, 15 μL of 1.33 mg/mL pilocarpine (based on the mid-range of pilocarpine found in previous analysis of tick saliva, (Ribeiro et al., 2004) in sterile PBS, or 15 μL of tick saliva, and incubated at 35° C. 10 μL samples taken from each of 10 prepared cultures and assessed for spirochete survival at 0, 24 and 48 h. Time points for spirochete survival assessment are chosen based on previous observations of post-feeding decreases in spirochete-positive ticks (Ryder et al., 1992). […]

B. burgdorferi = assay: Borreliacidal assay of saliva alone versus saliva plus phospholipase A2 inhibitor OPC; format: cell-based, Borrelia burgdorferi; settings: 24 hrs, A. americanum saliva plus OPC 5-40 μM; culture controls 79
Method: Gel filtration fractionation of A. americanum saliva produces individual fractions with borreliacidal activity. Saliva is fractionated into 11 molecular weight pools by gel filtration and then tested by a borreliacidal assay as described by Zeidner, et al. 2009. Briefly, A. americanum saliva is size fractionated on a Superdex 200 column run with 25 mM NaCl dissolved in 5 mM HEPES (pH 7.6) at a flow rate of 0.5 ml per minute. The separation is monitored at […]. Fractions are collected at 1 minute intervals into siliconized eppendorf tubes. Each collected fraction is subsequently concentrated to 100 μl using a SpeedVac. 50 μl aliquots of the fractions are pooled according to the major molecular weight peaks at between 2 and 10 fractions per pool. Each pool is subsequently concentrated to 50 μl using Micron-3K filters (Millipore, Billerica, Mass.).
Inhibition of A. americanum borreliacidal activity using oleyloxyethyl phosphorylcholine (OPC) identifies phospholipase A2 as an active component of A. americanum saliva. The borreliacidal assay of Example 6 is performed comparing saliva alone with saliva plus the phospholipase A2 inhibitor OPC. […]

| SMILES | average number of live spirochetes (mean) ([1]; 24 h post-exposure) | average number of live spirochetes (mean) ([1]; 48 h post-exposure) | percent control live spirochetes (B. burgdorferi) |
| --- | --- | --- | --- |
| CC[C@@H]1C(=O)OC[C@@H]1Cc1cncn1C [pilocarpine] | 82.1 counts per 10 high powered (10 | 58.2 counts per 10 high powered (10 |  |
| CCCCCCCC/C=C\CCCCCCCCOCCOP(=O)([O-])OCC[N+](C)(C)C [OPC, oleyloxyethyl phosphorylcholine] |  |  | 76-78% |
